Reference: article PMC8470770, “Characterization of a Primate Blood-Brain Barrier Co-Culture Model Prepared from Primary Brain Endothelial Cells, Pericytes and Astrocytes” (Pharmaceutics, 2021)
Like-named read-outs stand apart in the source and are kept apart here. Blank lines part the entries; values can stand above or below the compound they belong to.

Legend:
in vitro = conditions: cynomolgus monkey (Macaca fascicularis)
Experimental: To prepare the in vitro co-culture models (EPA), pericytes (2 × 10^4 cells/cm^2) were cultured on the bottom sides of collagen-coated culture inserts (Transwell clear, polyester membrane, 0.4 μm pore size, Corning Costar, NY, USA), and astrocytes (0.5 × 10^5 cell/cm^2) were seeded on the collagen-coated well of a 24-well culture plate. Cells were let to adhere overnight, and endothelial cells (2 × 10^5 cells/cm^2) were seeded on the inside of the inserts (top side of the membranes) and placed in the wells of the 24-well culture plates. An endothelial cell monolayer model (E00) was constructed by a similar method as the co-culture model, except for the procedure of seeding of pericytes and astrocytes. BBB models were maintained in RBEC medium supplemented with 550 nM hydrocortisone.
The permeability of the same 10 drugs was measured in the apical-to-basolateral (A-B) and basolateral-to-apical (B-A) directions as described in our previous study. All test compounds were dissolved in DMSO to yield a 10 mM solution, which was further diluted to 10 μM in HBSS-Hepes buffer (Hank’s Buffered Salt Solution containing 25 mM Hepes). […] The concentration of test compounds in the samples was determined by a Merck–Hitachi LaChrom HPLC with UV–VIS or a fluorescence detector (Merck, Darmstadt, Germany). […] Apparent permeability coefficients (Papp) were calculated using the following equation: Papp = (dQ/dT)/(A × C0), where dQ/dT is the cumulative amount in the receiver compartment versus time, A is the surface of the filter, and C0 is the initial concentration of the tracer in the luminal compartments.

[1] = parameters: method as in PMID 22906709; conditions: cited from earlier work
[2] = system: primary triple co-culture monkey BBB model; conditions: cited from earlier work
[3] = system: rat BBB co-culture model (EPA); parameters: method as in PMID 22906709; conditions: cited from earlier work; for Rat BBB Papp A-B: apical to basal; for Rat BBB Papp B-A: basal to apical
[4] = Sodium fluorescein permeability (Pe) of monkey BBB mono- and co-culture models; type: in vitro ADME; conditions: cynomolgus monkey (Macaca fascicularis), 10 μg/mL Na-F, read-out: endothelial permeability coefficient for sodium fluorescein (Na-F Pe)
Experimental: (§1) To evaluate the barrier function in different BBB models, transendothelial electrical resistance (TEER) was measured by an EVOM resistance meter and Endohm chamber (World Precision Instruments, Sarasota, FL, USA). The resistance values of blank inserts (background resistance) were subtracted from values of inserts with cells. TEER data are shown as Ω × cm^2. The permeability of sodium fluorescein (Na-F, MW: 376 Da) was also determined, and used as an index of paracellular transport. Cell culture inserts were transferred to 24-well plates containing 0.9 mL assay buffer (Dulbecco’s PBS (D-PBS) containing 0.9 mM CaCl2, 0.5 mM MgCl2, 4.5 g/L glucose, and 10 mM HEPES; pH 7.4). The luminal culture medium was replaced with 0.2 mL of assay buffer containing 10 μg/mL Na-F. Fifteen or 45 min after Na-F addition, the inserts were transferred to new wells containing the assay buffer. […] Transendothelial permeability coefficient (Pe) was calculated as previously described.

[5] = system: P-glycoprotein (P-gp, ABCB1); test: Bidirectional transport of rhodamine 123 across MBECs; conditions: 5 μM R123, 1 h, 37 °C; MBEC
Experimental: For bidirectional transport assay, the flux of 5 μM R123 in assay buffer was measured for 1 h at 37 °C in the luminal-to-abluminal and in the opposite abluminal-to-luminal directions. After measuring the R123 content in samples collected from both compartments, Pe values were calculated.

SLC35F2 = system: SLC35F2; parameters: method as in PMID 33144341; conditions: monkey BBB kit; famotidine as inhibitor; cited from earlier work
[6] = system: monkey co-culture BBB model (EPA); test: Effect of TGF-β1 on barrier integrity (TEER) in monkey co-culture BBB model (EPA); type: cell-based, Macaca fascicularis; conditions: TGF-β1 1 ng/mL, 3, 6, and 12-h time points
Experimental: as §1

[7] = system: receptors for advanced glycation end-product (RAGE); conditions: cited from earlier work

Compound: Cn1c(=O)c2c(ncn2C)n(C)c1=O [Caffeine]
Papp A→B at 10 μM (in vitro): 60.5 ×10⁻⁶ cm/s
Papp B→A at 10 μM (in vitro): 65.2 ×10⁻⁶ cm/s
Mouse In Vivo Papp [1]: 11.11 ×10⁻⁶ cm/s
mean Papp across the monkey BBB model [2]: 71.7 ± 3.2 × 10^−6 cm/s
Rat BBB Papp A-B [3]: 64.95 ×10⁻⁶ cm/s
Rat BBB Papp B-A [3]: 59.91 ×10⁻⁶ cm/s

Papp A→B at 10 μM (in vitro): 3 ×10⁻⁶ cm/s
Papp B→A at 10 μM (in vitro): 2.88 ×10⁻⁶ cm/s
efflux ratio at 10 μM (in vitro): 0.97
Compound: CN/C(=N/CCSCc1nc[nH]c1C)NC#N [Cimetidine]
Mouse In Vivo Papp [1]: 0.2 ×10⁻⁶ cm/s
Rat BBB Papp A-B [3]: 3.86 ×10⁻⁶ cm/s
Rat BBB Papp B-A [3]: 2.8 ×10⁻⁶ cm/s
Rat BBB Efflux Ratio [3]: 0.75

Compound: C[C@H]1O[C@@H](O[C@H]2[C@@H](O)C[C@H](O[C@H]3[C@@H](O)C[C@H](O[C@H]4CC[C@@]5(C)[C@H](CC[C@@H]6[C@@H]5C[C@@H](O)[C@]5(C)[C@@H](C7=CC(=O)OC7)CC[C@]65O)C4)O[C@@H]3C)O[C@@H]2C)C[C@H](O)[C@@H]1O [Digoxin]
Mouse In Vivo Papp [1]: 0.1 ×10⁻⁶ cm/s

Papp A→B at 10 μM (in vitro): 32.7 ×10⁻⁶ cm/s
Papp B→A at 10 μM (in vitro): 39.1 ×10⁻⁶ cm/s
efflux ratio at 10 μM (in vitro): 1.2
Compound: COc1ccc2c(c1)c(CC(=O)O)c(C)n2C(=O)c1ccc(Cl)cc1 [Indomethacin]
Mouse In Vivo Papp [1]: 0.13 ×10⁻⁶ cm/s
Rat BBB Papp A-B [3]: 33.63 ×10⁻⁶ cm/s
Rat BBB Papp B-A [3]: 44.07 ×10⁻⁶ cm/s
Rat BBB Efflux Ratio [3]: 1.31

Compound: CN(C)C(=O)C(CCN1CCC(O)(c2ccc(Cl)cc2)CC1)(c1ccccc1)c1ccccc1 [Loperamide]
Mouse In Vivo Papp [1]: 1.05 ×10⁻⁶ cm/s
Rat BBB Papp A-B [3]: 15.57 ×10⁻⁶ cm/s
Rat BBB Papp B-A [3]: 21.76 ×10⁻⁶ cm/s

Papp at 10 μg/mL ([4]; pH 7.4, MBEC co-culture with rat pericytes (EP0)): 0.74 ± 0.06 ×10⁻⁶ cm/s
Papp at 10 μg/mL ([4]; pH 7.4, MBEC co-culture with rat pericytes and astrocytes (EPA)): 0.69 ± 0.07 ×10⁻⁶ cm/s
Papp at 10 μg/mL ([4]; pH 7.4, monolayer MBEC model (E00)): 2.44 ± 0.04 ×10⁻⁶ cm/s
Compound: O=C1OC2(c3ccc(O)cc3Oc3cc(O)ccc32)c2ccccc21 [Na-F, sodium fluorescein]

Compound: C=C[C@H]1C[N@@]2CC[C@H]1C[C@@H]2[C@@H](O)c1ccnc2ccc(OC)cc12 [Quinidine]
Mouse In Vivo Papp [1]: 1.69 ×10⁻⁶ cm/s
Rat BBB Papp A-B [3]: 6.28 ×10⁻⁶ cm/s
Rat BBB Papp B-A [3]: 12.11 ×10⁻⁶ cm/s

transport of R123 from brain side to blood side (B-A) versus opposite direction (A-B) [5]: almost four-fold higher
Compound: COC(=O)c1ccccc1-c1c2ccc(=N)cc-2oc2cc(N)ccc12 [R123, rhodamine 123]

Papp A→B at 10 μM (in vitro): 1.47 ×10⁻⁶ cm/s
Papp B→A at 10 μM (in vitro): 2.14 ×10⁻⁶ cm/s
efflux ratio at 10 μM (in vitro): 1.46
Compound: CC[C@]1(O)C[C@@H]2CN(CCc3c([nH]c4ccccc34)[C@@](C(=O)OC)(c3cc4c(cc3OC)N(C)[C@H]3[C@@](O)(C(=O)OC)[C@H](OC(C)=O)[C@]5(CC)C=CCN6CC[C@]43[C@@H]65)C2)C1 [Vinblastine]
Mouse In Vivo Papp [1]: 1.43 ×10⁻⁶ cm/s
Rat BBB Papp A-B [3]: 2.42 ×10⁻⁶ cm/s
Rat BBB Papp B-A [3]: 1.39 ×10⁻⁶ cm/s
Rat BBB Efflux Ratio [3]: 0.69

Compound: COCCn1c2c([n+](Cc3cnccn3)c1C)C(=O)c1ccccc1C2=O [YM155, sepantronium bromide]
BBB permeability and intraendothelial accumulation (SLC35F2 substrate transport) (SLC35F2): famotidine-inhibitable BBB permeability and intraendothelial accumulation

Compound: O=C1Nc2ccc(Cl)cc2[C@@](C#CC2CC2)(C(F)(F)F)O1 [efavirenz]
mean Papp across the monkey BBB model [2]: 1.44e-05 cm/s

Compound: COc1cc2c(cc1Cc1cccc(Cl)c1F)c(=O)c(C(=O)O)cn2[C@H](CO)C(C)C [elvitegravir]
mean Papp across the monkey BBB model [2]: 1.86e-05 cm/s

Compound: O=c1c(O)c(-c2cc(O)c(O)c(O)c2)oc2cc(O)cc(O)c12 [myricetin]
Papp in the monkey BBB model [2]: 2.5 ×10⁻⁶ cm/s

Compound: Cc1ccnc2c1NC(=O)c1cccnc1N2C1CC1 [nevirapine]
mean Papp across the monkey BBB model [2]: 3.2e-05 cm/s

Compound: Cc1nnc(C(=O)NC(C)(C)c2nc(C(=O)NCc3ccc(F)cc3)c(O)c(=O)n2C)o1 [raltegravir]
mean Papp across the monkey BBB model [2]: 1.02e-05 cm/s

Compound: TGF-β1: cytokine transforming growth factor β1
decrease in TEER values compared to medium treated group [6]: ~ 30%

Compound: oxytocin
reduction of blood-to-brain direction transport when RAGE was silenced by shRNA [7]: approximately 70%
